Read-outs that look alike come from different tables or passages of the source.
How the values were obtained:
[1] = tested on: CsgA gene expression (csgBAC promoter-GFP reporter) in E. coli UTI89; experiment: In vitro live cell fluorescent reporter assay of CsgA transcription (Reporter Assay); format: cell-based
Description: In vitro live cell fluorescent reporter assay to determine effects of compounds on CsgA transcription. To assess the impact of compounds on CsgA gene expression, a live cell assay was performed using an engineered strain of E. coli UTI89 with a fluorescent CsgA gene expression reporter driven by the csgBAC promoter. In the reporter strain, a gene encoding Green Fluorescent Protein (GFP) was placed immediately downstream of the full intergenic region between csgDEF and csgBAC, containing the csgBAC promoter and other transcriptional regulatory elements, and inserted in single copy into the E. coli UTI89 chromosome, as described in Cegelski et. al., “Small-molecule inhibitors target Escherichia coli amyloid biogenesis and biofilm formation,” Nat. Chem. Bio., 25 Oct. 2009. With this construct, GFP expression in the reporter strain was under the same regulation as CsgA expression. The reporter strain was struck out on a YESCA agar plate (1 g/L yeast extract, 10 g/L casamino acids, 20 g/L Bacto Agar) and grown at about 27° C. for 2 days, or until single colonies were sufficiently large to pick. A single colony of the reporter strain was used to inoculate 5 mL of YESCA broth (1 g/L yeast extract, 10 g/L casamino acids), which was grown overnight at about 27° C. The inoculum was diluted 1:10 in YESCA broth and the optical density at 600 nm (OD600) was measured on a SpectraMax M2 or M5e (Molecular Devices, San Jose, Calif.) spectrophotometer in cuvettes. The culture was then further diluted to achieve a final OD600 of 0.003, which was confirmed by measurement of the OD600. Compounds were diluted in dimethyl sulfoxide (DMSO) and plated on black clear-bottomed tissue culture-treated 96-well plates with 1.5 μL/well for final test concentrations from 0.14-100 μM. All assay wells, including vehicle controls and positive controls for inhibition, included 1% DMSO final. Vehicle control wells consisted of DMSO and the reporter strain to assess the expression of the reporter strain in the assay in the absence of any compound. […] 148.5 μL culture at OD600 0.003 in YESCA broth was added to all wells for 150 μL final volume. Plates were incubated at 27° C. for 20 hours, then GFP fluorescence signal for each well was read on a Spectramax M2 or M5e plate reader with excitation at 485 nm, emission at 525 nm, and a cutoff at 515 nm. OD600 for each well was also measured on the Spectramax M2 or M5e plate reader. […] Background fluorescence was subtracted from all wells, then fluorescence signal for each well was normalized to the mean of the vehicle control wells. Normalized dose response curves were plotted for each compound, and compound inhibition of CsgA transcription was determined by assessing the curve-fit IC50, bottom, top, span (top-bottom), and Hill slope using GraphPad Prism software version 8.1.1 (GraphPad Software, San Diego, Calif.). An additional metric used to evaluate compounds was the concentration at which the curve reached 50% of the expression level of the vehicle control. This was written as a custom analysis in GraphPad Prism according to the formula X[50], or the X value at which Y=50, ie, the compound concentration at which fluorescence of the reporter strain was calculated to reach 50% of the vehicle control fluorescence. Separately from the fluorescence data, OD600 values were normalized to the mean of the vehicle control wells, and dose response curves were plotted for each compound. OD600 reduction of greater than 10% indicated compounds had some toxicity or negative impact on bacterial growth. […]

[2] = molecular target: T1, E. coli CsgA (Escherichia coli, UniProt P28307); experiment: In vitro ThioflavinT assay of CsgA aggregation (CsgA ThT Assay); format: biochemical; settings: for remaining activity at 25 µM: compound 25 μM; for remaining activity at 100 µM: compound 100 μM
T1 construct: made in house; host or cells: E. coli NEB 3016 slyD::kan, pET11d
T1 sequence (P28307 23-151): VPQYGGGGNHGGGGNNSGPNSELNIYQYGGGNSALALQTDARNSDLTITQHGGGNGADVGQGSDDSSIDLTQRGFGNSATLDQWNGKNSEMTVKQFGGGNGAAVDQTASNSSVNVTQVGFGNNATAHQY
Description: In vitro ThioflavinT assay to determine effects of compounds on CsgA aggregation. To assess the effects of compounds on aggregation of E. coli CsgA, a cell-free assay was performed using purified CsgA and Thioflavin T. In the assay, histidine-tagged CsgA was over-expressed in E. coli NEB 3016 slyD::kan cells harboring a pET11d vector containing a C-terminal 6× His tag. Following growth in rich media, CsgA production is induced at an OD600 of approximately 1.0 by addition of 0.5 mM IPTG (isopropyl beta-D-1-thiogalactopyranoside) followed by incubation at 37° C. for 1-4 hours with shaking at 200-250 rpm. Bacteria were resuspended in 8 M guanidine hydrochloride in 50 mM potassium phosphate buffer, pH 7.3 and lysed by sonication on ice using three 20 second intervals. The resulting lysate was incubated on a platform rocker for 1 hour at room temperature. After centrifugation at 10,000×g for 20 minutes, the supernatant was further sonicated on ice for three 20 second intervals and then incubated with nickel-nitrilotriacetic acid resin (Sigma) at room temperature for 1 hour in a 50 mL conical tube on a platform rocker. The resin was washed and pelleted 5 times with 45 mL 8 M guanidine in 50 mM potassium phosphate buffer pH 7.3. The resin was further washed and pelleted two times with 8 M guanidine hydrochloride in 50 mM potassium phosphate buffer pH 7.3 containing 12.5 mM imidazole. Purified CsgA protein was eluted two times with 5 mL of 6-8 M guanidine hydrochloride in 50 mM potassium phosphate buffer, pH 7.3 containing 250 mM imidazole. The eluted protein was aliquoted with 150 μL per aliquot, snap frozen in liquid nitrogen, and stored at −80 C. In order to obtain monomeric CsgA, the purified CsgA protein was thawed and passed through two pre-chilled desalting columns (Zeba) to remove imidazole and guanidine. The buffer exchanged protein was loaded onto a 30-kDa centrifugal filter unit (Amicon) and spun for 30 minutes at 7500×g to remove dimers and other oligomers. Protein concentration was assessed by the NanoDrop technique (Thermo Scientific), as is familiar to one skilled in the art. The CsgA aggregation assay was conducted in 96-well black non-binding surface or white untreated microplates with 20-40 μM ThioflavinT, 50 mM potassium phosphate buffer pH 7.3, 1% DMSO, CsgA at 2-20 μM, and compounds at 3.125-200 uM. The vehicle control wells contain all components of the assay except test compounds and represent the level of CsgA aggregation in the absence of any inhibitor or accelerator. Plates were incubated at room temperature in a Tecan Nano F200 plate reader with excitation at 438 nm using a 439 nm filter with a bandwidth of 8 nm, and emission at 495 nm with a 490 nm filter with a bandwidth of 10 nm, or in a SpectraMax M5, SpectraMax M2 or SpectraMax® i3X (Molecular Devices, San Jose, Calif.) spectrophotometer with excitation at 438 nm and emission at 495 nm. During the assay, plates were shaken initially for 5 seconds and subsequently for 3 seconds prior to fluorescent readings. Readings were performed every 15 minutes for up to 1005 minutes. The effect of compounds on CsgA aggregation in the assay was determined with data from 0-17 hours. Fluorescence values for each compound with CsgA were first adjusted by subtracting the average fluorescence of the compound in the absence of CsgA or in the presence of CsgA and compound at time 0 or 15 minutes. The data were analyzed in several ways:
1. The adjusted ThT fluorescence values were normalized by dividing them by the average fluorescence in the vehicle control wells containing CsgA. The median normalized fluorescence from 6-6.5 hours or 8-9 hours with the compound was expressed as a percentage of the median fluorescence observed in vehicle controls over the same time period. Percent inhibition of CsgA aggregation by a compound was determined by subtracting the percent average fluorescence with the compound relative to the vehicle controls from 100%. […]

[3] = Escherichia coli, read-out: Reporter Assay Abs IC50 (activity range), median Abs IC50 in the CsgA reporter assay, class symbol
[4] = Escherichia coli, read-out: Reporter Assay Abs IC50 (μM), median Abs IC50 in the CsgA reporter assay, N/A = maximum expression reduction is <50% of control
[5] = read-out: CsgA ThT Assay (10 μM CsgA) % Control AUC at 1005 minutes, 25 μM (activity range), CsgA 10 μM, black plates, 1005 minutes, class symbol
[6] = read-out: CsgA ThT Assay (10 μM CsgA) % Control AUC at 1005 minutes, 25 μM, mean AUC as % of DMSO control, CsgA 10 μM, black plates, 1005 minutes
[7] = read-out: CsgA ThT Assay (10 μM CsgA) % Control AUC at 1005 minutes, 100 μM (activity range), CsgA 10 μM, black plates, 1005 minutes, class symbol
[8] = read-out: CsgA ThT Assay (10 μM CsgA) % Control AUC at 1005 minutes, 100 μM, mean AUC as % of DMSO control, CsgA 10 μM, black plates, 1005 minutes

| SMILES | IC50 [1, 3] [µM] | IC50 [1, 4] [µM] | remaining activity at 25 µM [2, 5] [%] | remaining activity at 25 µM [2, 6] [%] | remaining activity at 100 µM [2, 7] [%] | remaining activity at 100 µM [2, 8] [%] | IC50 ([1]; read-out: Reporter Assay Abs IC50 (activity range), median Abs IC50 in the CsgA reporter assay, class symbol) [µM] | IC50 ([1]; Escherichia coli, read-out: Reporter Assay Abs IC50, activity range, class symbol) [µM] | remaining activity at 25 µM ([2]; read-out: CsgA ThT Assay (2 μM CsgA) % Control Bmax 25 μM, activity range, class symbol, CsgA 2 μM, white plates) [%] | remaining activity at 25 µM ([2]; read-out: CsgA ThT Assay (2 μM CsgA) % Control Bmax 25 μM, mean Bmax as percentage of DMSO control, CsgA 2 μM, white plates) [%] | remaining activity at 100 µM ([2]; read-out: CsgA ThT Assay (2 μM CsgA) % Control Bmax 100 μM, activity range, class symbol, CsgA 2 μM, white plates) [%] | remaining activity at 100 µM ([2]; read-out: CsgA ThT Assay (2 μM CsgA) % Control Bmax 100 μM, mean Bmax as percentage of DMSO control, CsgA 2 μM, white plates) [%] |
| --- | --- | --- | --- | --- | --- | --- | --- | --- | --- | --- | --- | --- |
| CCc1c(Cc2cccc3ccccc23)c(-c2cccc(C(F)(F)F)c2)c2n(c1=O)C(C(=O)O)CN(CCCCCO)S2(=O)=O (stereo not drawn) [Compound 114, 7-ethyl-2-(5-hydroxypentyl)-8-(naphthalen-1-ylmethyl)-6-oxo-9-(3-(trifluoromethyl)phenyl)-3,4-dihydro-2H,6H-pyrido[1,2-e][1,2,5]thiadiazine-4-carboxylic acid 1,1-dioxide] | 4.6 to 10 | 7 | 31 to 60 | 37 | 11 to 31 | 21 |  |  |  |  |  |  |
| Nc1c(Cc2cccc3ccccc23)c(-c2cccc(C(F)(F)F)c2)c2n(c1=O)C(C(=O)O)CN(CCCCCO)S2(=O)=O (stereo not drawn) [Compound 100, 7-amino-2-(5-hydroxypentyl)-8-(naphthalen-1-ylmethyl)-6-oxo-9-(3-(trifluoromethyl)phenyl)-3,4-dihydro-2H,6H-pyrido[1,2-e][1,2,5]thiadiazine-4-carboxylic acid 1,1-dioxide] | > 10 | 14.5 | 31 to 60 | 41 | 31 to 60 | 31 |  |  |  |  |  |  |
| Nc1c(Cc2cccc3ccccc23)c(-c2cccc(C(F)(F)F)c2)c2n(c1=O)C(C(=O)O)CS2 (single isomer, unassigned) [Compound 020a, 6-amino-7-(naphthalen-1-ylmethyl)-5-oxo-8-(3-(trifluoromethyl)phenyl)-2,3-dihydro-5H-thiazolo[3,2-a]pyridine-3-carboxylic acid] |  | 4.4 | 11 to 31 | 27 | 11 to 31 | 20 | 1.3 to 4.5 |  |  |  |  |  |
| O=C(O)C1CSc2c(-c3cccc(C(F)(F)F)c3)c(C(F)(F)c3cccc4ccccc34)nc(=O)n21 (stereo not drawn) [Compound 063, 7-(difluoro(naphthalen-1-yl)methyl)-5-oxo-8-(3-(trifluoromethyl)phenyl)-2,3-dihydro-5H-thiazolo[3,2-c]pyrimidine-3-carboxylic acid] | > 10 | 11.2 | > 60 | 61 | 11 to 31 | 21 |  |  |  |  |  |  |
| CN1CC(C(=O)O)n2c(c(-c3cccc(C(F)(F)F)c3)c(Cc3cccc4ccccc34)c(C(=O)N3CCCC3)c2=O)S1(=O)=O (stereo not drawn) [Compound 186, 2-methyl-8-(naphthalen-1-ylmethyl)-6-oxo-7-(pyrrolidine-1-carbonyl)-9-(3-(trifluoromethyl)phenyl)-3,4-dihydro-2H,6H-pyrido[1,2-e] [1,2,5] thiadiazine-4-carboxylic acid 1,1-dioxide] |  | 4.7 |  |  |  |  |  | 4.6 to 10 | > 60 | 117 | > 60 | 72 |
| Nc1c(Cc2cccc3ccccc23)c(-c2cccc(C(F)(F)F)c2)c2n(c1=O)C(C(=O)O)CN(CCO)S2(=O)=O (stereo not drawn) [Compound 098, 7-amino-2-(2-hydroxyethyl)-8-(naphthalen-1-ylmethyl)-6-oxo-9-(3-(trifluoromethyl)phenyl)-3,4-dihydro-2H,6H-pyrido[1,2-e][1,2,5]thiadiazine-4-carboxylic acid 1,1-dioxide] | > 10 | 20.9 | 31 to 60 | 60 | 31 to 60 | 33 |  |  |  |  |  |  |
